Like-named read-outs stand apart in the source and are kept apart here.
Experiments:
[1] = system: levan fructotransferase from A. ureafaciens K2032; assay: Effect of additives on the activity of levan fructotransferase; type: biochemical
Method: (§1) The purified enzyme was 51,000 in molecular weight as measured by SDS-PAGE while being measured to have a molecular weight of 96,000 by gel filtration chromatography. Thus, it was identified as being a dimer in aqueous conditions. […] Also, it was of optimal activity at 55° C. […] Whereas being inhibited by Mn^2+, Fe^2+ and Hg^2+, the activity of the enzyme was enhanced by […] and Ca^2+.

[2] = type: biochemical, A. ureafaciens K2032
Method: A. ureafaciens K2032 was inoculated in a selective broth containing levan as a major carbon source and cultured at 30° C. for 72 hours in an incubator. Investigation into the growth and levan fructotransferase activity of the bacteria provided the knowledge that the largest enzyme activity is obtained after 10 hours of the incubation. From the culture incubated for 10 hours, the enzyme was purified (FIG. 5). In this regard, the purification was achieved by successively using acetone precipitation, ion exchange chromatography (DEAE 650-M and Mono Q), and gel filtration chromatography, resulting in producing levan fructotransferase with a specific activity of 2269 U/mg protein at an amount of 1.1 mg at a yield of 29.8% (Table 8).
as §1
The newly isolated levan fructotransferase structural gene is composed of 1566 bp which corresponds to 521 aa. The gene of the present invention has a signal sequence consisting of 99 bp (corresponding to 33 aa) at its N-terminus and therefore, the putative completed protein may be about 56 kDa in molecular weight. […] This levan fructotransferase gene is longer by 15 bases (5 amino acids) than is the levan fructotransferase gene derived from A. nicotinovorans GS-9. These two genes are 81% in the homology of amino acid sequence (76% in the homology of base sequence). Consequently, the levan fructotransferase gene of A. ureafaciens K2032 was identified as being new and its base sequence was registered in the GenBank, U.S.A. (Accession No. AF181254).

[3] = additive concentration 1 mM, control = 100
[4] = additive concentration 10 mM, control = 100

Molecule: Cl.N [NH4Cl]
- Relative activity [1, 3]: 46%

Molecule: O=C(O)CN(CCN(CC(=O)O)CC(=O)O)CC(=O)O [EDTA, reference compound]
- Relative activity [1, 3]: 95%
- Relative activity [1, 4]: 94%

Molecule: CCCCCCCCCCCCOS(=O)(=O)[O-].[Na+] [SDS, sodium dodecylsulfate, reference compound]
- Relative activity [1, 3]: 101%
- Relative activity [1, 4]: 32%

Molecule: [Cl-].[Cl-].[Zn+2] [ZnCl2]
- Relative activity [1, 3]: 23%

Molecule: [Cl-].[Cl-].[Mg+2] [MgCl2]
- Relative activity [1, 3]: 63%

Molecule: [Cl-].[Li+] [LiCl]
- Relative activity [1, 3]: 92%

Molecule: [Cl][Mn][Cl] [MnCl2]
- Relative activity [1, 3]: 9%
- Effect on the activity of the enzyme (in words) ([1]; metal ions): inhibited

Molecule: [Cl-].[K+] [KCl]
- Relative activity [1, 3]: 89%

Molecule: [Cl][Ni][Cl] [NiCl]
- Relative activity [1, 3]: 74%

Molecule: [Ca+2].[Cl-].[Cl-] [CaCl2]
- Relative activity [1, 3]: 156%
- Relative activity [1, 4]: 181%
- Effect on the activity of the enzyme (in words) ([1]; metal ions): enhanced

Molecule: [Cl][Hg][Cl] [HgCl2]
- Relative activity [1, 3]: 0%
- Effect on the activity of the enzyme (in words) ([1]; metal ions): inhibited

Molecule: [Cl-].[Na+] [NaCl]
- Effect on the activity of the enzyme (in words) [1]: enhanced
- Relative activity [1]: 125, 142%

Molecule: [Cl][Fe][Cl] [FeCl2]
- Relative activity [1, 3]: 4%
- Effect on the activity of the enzyme (in words) ([1]; metal ions): inhibited

B1: levan fructotransferase: enzyme purified from A. ureafaciens K2032 that produces DFA IV from levan; SEQ ID NO: 1 (protein)
chain: MTPAISRRAVLQGAGAGALALIFGGAVPPAARASAPGSLRAVYHMTPPSGWLCDPQRPVTTHGAYQLYYLHSDQNNGPGGWDHASTTDGVAFTHHGTVMPLRPDFPVWSGSAVVGTANTAGFGAGAVVALATQPTDGVRKYQEQYLYWSTDGGFTFTALPDPVIVNTDGRAATTPAEIENAEWFRDPKIHWDTARGEWVCVIGRLRYAAFYTSPNLRDWTLRRNFDYPNHALGGIECPDLFEITADDGTRHWVLAASMDAYGIGLPMTYAYWTGTWDGEQFHADDLTPQWLDWGWDWYAAVTWPSIDAPETKRLAIAWMNNWKYAARDVPTDASDGYNGQNSIVRELRLARQPGGWYTLLSTPVAALTNYVTATTTLPDRTVDGSAVLPWNGRAYEIELDIAWDTATNVGISVGRSPDGTRHTNIGKYGADLYVDRGPSDLAGYSLAPYSRAAAPIDPGARSVHLRILVDTQSVEVFVNAGHTVLSQQVHFAEGDTGISLYTDGGPAHFTGIVVREIGQAI
modifications: Arthrobacter ureafaciens K2032
- pH range in which the enzyme maintains its stability [2]: 4-10.5
- Specific activity ([2]; after acetone precipitation, ion exchange and gel filtration chromatography): 2269 U/mg protein
- Remnant activity ([2]; after standing at 50° C. for 30 min): ≥ 90%
- Isoelectric point ([2]; levan fructotransferase encoded by lftA): 5.15 pH

Reference: patent US6841368B1, “Enzymatic production of difructose dianhydride IV from sucrose and relevant enzymes and genes coding for them” (priority 1999, dated 2005)
